Experimental data: PubChem BioAssay AID330 (DTP/NCI, 2004)
“And” between values parts separate entries of the source, which are not always exact repeats. Equal values may be shown once. Toxic doses and inconclusive results are not listed.

System: P388 leukemia ip, CD2F1 mice, survival T/C
Experiment: NCI In Vivo Anticancer Drug Screen. Data for tumor model P388 Leukemia (intraperitoneal) in CD2F1 (CDF1) mice
Conditions: endpoint: median survival time, vehicle: other, higher = longer survival
Summary of the method: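 Mice carrying the transplanted tumor received test compound or vehicle. Survival was recorded in each group, and the value is the treated-group measurement divided by that of the vehicle-treated control group.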

CC1OC(=O)C(C(C)C)NC(=O)C(C(C)C)OC(=O)C(C(C)C)NC(=O)C(C)OC(=O)C(C(C)C)NC(=O)C(C(C)C)OC(=O)C(C(C)C)NC(=O)C(C)OC(=O)C(C(C)C)NC(=O)C(C(C)C)OC(=O)C(C(C)C)NC1=O (configuration not stated) was tested, and the T/C (dose: 12.5 micrograms/kg/injection, schedule: Q01DX005 (iv)) was 99 % of control and 100 % of control, the T/C (dose: 12.5 micrograms/kg/injection, schedule: Q03HX008 (ip)) was 118 % of control and the T/C (dose: 12.5 micrograms/kg/injection, schedule: Q03HX020 (ip)) was 119 % of control. The T/C (dose: 12.5 micrograms/kg/injection, schedule: Q04DX002 (iv)) was 101 % of control, the T/C (dose: 12.5 micrograms/kg/injection, schedule: Q12HX004 (ip)) was 110 % of control and the T/C (dose: 12.5 micrograms/kg/injection, schedule: Q12HX004 (iv)) was 103 % of control. For the same compound, the T/C (dose: 12.5 micrograms/kg/injection, schedule: Q12HX010 (ip)) was 123 % of control, the T/C (dose: 12.5 micrograms/kg/injection, schedule: Q12HX010 (iv)) was 103 % of control and the T/C (dose: 25.0 micrograms/kg/injection, schedule: Q01DX001 (ip)) was 98 % of control. The T/C (dose: 25.0 micrograms/kg/injection, schedule: Q01DX001 (iv)) was 103 % of control, the T/C (dose: 25.0 micrograms/kg/injection, schedule: Q01DX005 (ip)) was 115 % of control and 116 % of control and the T/C (dose: 25.0 micrograms/kg/injection, schedule: Q01DX005 (iv)) was 99 % of control and 100 % of control. The T/C (dose: 25.0 micrograms/kg/injection, schedule: Q03HX008 (ip)) was 113 % of control, the T/C (dose: 25.0 micrograms/kg/injection, schedule: Q03HX020 (ip)) was 124 % of control and the T/C (dose: 25.0 micrograms/kg/injection, schedule: Q04DX002 (ip)) was 102 % of control. For the same compound, the T/C (dose: 25.0 micrograms/kg/injection, schedule: Q04DX002 (iv)) was 101 % of control, the T/C (dose: 25.0 micrograms/kg/injection, schedule: Q12HX004 (ip)) was 100 % of control and the T/C (dose: 25.0 micrograms/kg/injection, schedule: Q12HX004 (iv)) was 98 % of control. For the same compound, the T/C (dose: 25.0 micrograms/kg/injection, schedule: Q12HX010 (ip)) was 121 % of control, the T/C (dose: 25.0 micrograms/kg/injection, schedule: Q12HX010 (iv)) was 103 % of control and the T/C (dose: 50.0 micrograms/kg/injection, schedule: Q01DX001 (ip)) was 100 % of control. The T/C (dose: 50.0 micrograms/kg/injection, schedule: Q01DX001 (iv)) was 101 % of control, the T/C (dose: 50.0 micrograms/kg/injection, schedule: Q01DX005 (ip)) was 118 % of control and 120 % of control and the T/C (dose: 50.0 micrograms/kg/injection, schedule: Q01DX005 (iv)) was 98 % of control and 103 % of control. For the same compound, the T/C (dose: 50.0 micrograms/kg/injection, schedule: Q04DX002 (ip)) was 109 % of control, the T/C (dose: 50.0 micrograms/kg/injection, schedule: Q04DX002 (iv)) was 100 % of control and the T/C (dose: 50.0 micrograms/kg/injection, schedule: Q12HX004 (ip)) was 113 % of control. For the same compound, the T/C (dose: 50.0 micrograms/kg/injection, schedule: Q12HX004 (iv)) was 104 % of control, the T/C (dose: 50.0 micrograms/kg/injection, schedule: Q12HX010 (iv)) was 101 % of control and the T/C (dose: 100.0 micrograms/kg/injection, schedule: Q01DX001 (ip)) was 100 % of control. The T/C (dose: 100.0 micrograms/kg/injection, schedule: Q01DX001 (iv)) was 100 % of control, the T/C (dose: 100.0 micrograms/kg/injection, schedule: Q01DX005 (iv)) was 101 % of control and the T/C (dose: 100.0 micrograms/kg/injection, schedule: Q03HX020 (ip)) was 161 % of control. For the same compound, the T/C (dose: 100.0 micrograms/kg/injection, schedule: Q04DX002 (ip)) was 110 % of control, the T/C (dose: 100.0 micrograms/kg/injection, schedule: Q04DX002 (iv)) was 101 % of control and the T/C (dose: 100.0 micrograms/kg/injection, schedule: Q12HX004 (ip)) was 124 % of control. The T/C (dose: 100.0 micrograms/kg/injection, schedule: Q12HX010 (iv)) was 102 % of control, the T/C (dose: 200.0 micrograms/kg/injection, schedule: Q01DX001 (ip)) was 103 % of control and the T/C (dose: 200.0 micrograms/kg/injection, schedule: Q03HX008 (ip)) was 120 % of control. The T/C (dose: 200.0 micrograms/kg/injection, schedule: Q12HX010 (ip)) was 153 % of control, the T/C (dose: 400.0 micrograms/kg/injection, schedule: Q01DX001 (ip)) was 111 % of control and the T/C (dose: 800.0 micrograms/kg/injection, schedule: Q01DX001 (ip)) was 114 % of control.
